Data: patent US6737383B1, “Herbicidal oxadiazolidines” (priority 1999, dated 2004)

Columns and labels:
corn = assay: Test B pre/postemergence corn; assay type: in vivo, Zea mays
How it was run: (§1)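 Test chemicals in a non-phytotoxic solvent mixture with surfactant were sprayed preemergence onto planted seeds and postemergence onto plants 2 to 18 cm tall (1- to 4-leaf stage). After twelve to sixteen days in a greenhouse, injury was visually rated against untreated controls from 0 (no effect) to 10 (complete control).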

winter wheat [1] = assay: Test E winter wheat; assay type: in vivo, Triticum aestivum; details: Preemergence
winter wheat [2] = assay: Test E winter wheat; assay type: in vivo, Triticum aestivum; details: Postemergence, 0 to 100 scale, 0 is no effect, 100 is complete control
How it was run: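 Visually scored herbicidal effect relative to untreated plants, taken ~21 to 28 days post-application; compound in solvent with surfactant; postemergence sprays at the 1- to 4-leaf stage.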

wild oat = assay: Test E wild oat; assay type: in vivo, Avena fatua; details: Preemergence
cocklebur = assay: Test B pre/postemergence cocklebur; assay type: in vivo, Xanthium strumarium
How it was run: as §1

winter barley = assay: Test E winter barley; assay type: in vivo, Hordeum vulgare; details: Preemergence
Italian ryegrass = assay: Test E Italian ryegrass; assay type: in vivo, Lolium multiflorum; details: Preemergence
crabgrass = assay: Test B pre/postemergence crabgrass; assay type: in vivo, Digitaria sanguinalis
How it was run: as §1

green foxtail = assay: Test E green foxtail; assay type: in vivo, Setaria viridis; details: Preemergence
blackgrass = assay: Test E blackgrass; assay type: in vivo, Alopecurus myosuroides; details: Preemergence
surinam grass = assay: Test B pre/postemergence surinam grass; assay type: in vivo, Brachiaria decumbens
How it was run: as §1

[3] = Preemergence, Rate 62 g/ha, scale of 0 to 10 where 0 is no effect and 10 is complete control
[4] = Preemergence, Rate 250 g/ha, scale of 0 to 10 where 0 is no effect and 10 is complete control
[5] = Preemergence, Rate 500 g/ha, scale of 0 to 10 where 0 is no effect and 10 is complete control
[6] = Rate 62 g/ha, Postemergence, scale 0 to 10 (0 no effect, 10 complete control)
[7] = Rate 125 g/ha, Postemergence, scale of 0 to 10 where 0 is no effect and 10 is complete control
[8] = Rate 250 g/ha, Postemergence, scale of 0 to 10 where 0 is no effect and 10 is complete control
[9] = Rate 500 g/ha, Postemergence, scale 0 to 10, 0 no effect, 10 complete control
[10] = Rate 125 g/ha, 0 to 100 scale (0 no effect, 100 complete control)
[11] = Rate 62 g/ha, Postemergence, scale of 0 to 10 where 0 is no effect and 10 is complete control
[12] = Rate 125 g/ha, Postemergence, scale 0 to 10
[13] = Rate 125 g/ha, Preemergence, scale of 0 to 10 where 0 is no effect and 10 is complete control
[14] = Rate 500 g/ha, Postemergence, scale 0 to 10
[15] = Rate 500 g/ha, 0 to 100 scale where 0 is no effect and 100 is complete control

Q: Which results are given for CSCCn1c(=O)on(C(=O)N(c2ccc(F)cc2)C(C)C)c1=O [Compound 314]?
A: Corn plant response rating (corn; [3]): 0; Corn plant response rating (0 to 10 scale) (corn; Preemergence, Rate 125 g/ha): 0; Corn plant response rating (corn; [4]): 0; Corn plant response rating (corn; [5]): 0; Corn plant response rating (corn; [6]): 0; Corn plant response rating (corn; [7]): 0; Plant response rating, Corn (corn; [8]): 0; Corn plant response rating (corn; [9]): 0; Plant response rating, Wheat (winter) (winter wheat [1]; [10]): 65; Plant response rating, Wheat (winter) (winter wheat [1]; Rate 250 g/ha, 0 to 100 scale): 70; Plant response rating, Wheat (winter) (winter wheat [2]; Rate 125 g/ha): 65; Plant response rating, Wheat (winter) (winter wheat [2]; Rate 250 g/ha): 70; Plant response rating, Wild oat (wild oat; [10]): 70; Plant response rating, Wild oat (wild oat; Rate 250 g/ha, 0 to 100 scale): 70; Cocklebur plant response rating (cocklebur; [3]): 0; Cocklebur plant response rating (0 to 10 scale) (cocklebur; Preemergence, Rate 125 g/ha): 0; Cocklebur plant response rating (cocklebur; [4]): 0; Cocklebur plant response rating (cocklebur; [5]): 0; Cocklebur plant response rating (cocklebur; [6]): 0; Plant response rating, Cocklebur (cocklebur; [8]): 1; Cocklebur plant response rating (cocklebur; [9]): 1; Plant response rating, Barley (winter) (winter barley; [10]): 50; Plant response rating, Barley (winter) (winter barley; Rate 250 g/ha, 0 to 100 scale, 0 no effect, 100 complete control): 60; Plant response rating, I. Ryegrass (Italian ryegrass; [10]): 50; Plant response rating, I. Ryegrass (Italian ryegrass; Rate 250 g/ha, 0 to 100 scale): 55; Crabgrass plant response rating (crabgrass; [3]): 1; Crabgrass plant response rating (0 to 10 scale) (crabgrass; Preemergence, Rate 125 g/ha): 3; Crabgrass plant response rating (crabgrass; [4]): 7; Crabgrass plant response rating (crabgrass; [5]): 8; Crabgrass plant response rating (crabgrass; [6]): 0; Crabgrass plant response rating (crabgrass; [7]): 0; Plant response rating, Crabgrass (crabgrass; [8]): 4; Plant response rating, Green foxtail (green foxtail; [10]): 60; Plant response rating, Green foxtail (green foxtail; Rate 250 g/ha, 0 to 100 scale): 85; Plant response rating, Blackgrass (blackgrass; [10]): 40; Plant response rating, Blackgrass (blackgrass; Rate 250 g/ha, 0 to 100 scale): 50; B. signalgrass plant response rating (surinam grass; [3]): 0; B. signalgrass plant response rating (0 to 10 scale, 0 is no effect, 10 is complete control) (surinam grass; Preemergence, Rate 125 g/ha): 2; B. signalgrass plant response rating (surinam grass; [4]): 6; B. signalgrass plant response rating (surinam grass; [5]): 6; B. signalgrass plant response rating (surinam grass; [6]): 0; B. signalgrass plant response rating (surinam grass; [7]): 0; Plant response rating, B. signalgrass (surinam grass; [8]): 0; B. signalgrass plant response rating (surinam grass; [9]): 3

Q: Which results are given for CC(=O)OCCCCn1c(=O)on(C(=O)N(c2ccc(F)cc2)C(C)C)c1=O [Compound 211]?
A: Corn plant response rating (corn; [3]): 0; Corn plant response rating (corn; [4]): 0; Plant response rating, Corn (corn; [5]): 0; Corn plant response rating (corn; [11]): 0; Corn plant response rating (corn; [12]): 0; Corn plant response rating (corn; [13]): 0; Plant response rating (0 to 10; 0 is no effect, 10 is complete control), Corn (corn; Rate 250 g/ha, Postemergence): 0; Corn plant response rating (corn; [14]): 0; Plant response rating, Wheat (winter) (winter wheat [1]; [10]): 50; Wheat (winter) plant response rating (0 to 100 scale) (winter wheat [1]; Rate 250 g/ha): 35; Plant response rating, Wheat (winter) (winter wheat [1]; [15]): 30; Plant response rating, Wheat (winter) (winter wheat [2]; Rate 125 g/ha): 20; Plant response rating, Wheat (winter) (winter wheat [2]; Rate 500 g/ha): 40; Plant response rating, Wild oat (wild oat; [10]): 20; Plant response rating, Wild oat (wild oat; [15]): 40; Cocklebur plant response rating (cocklebur; [3]): 0; Cocklebur plant response rating (cocklebur; [4]): 0; Plant response rating, Cocklebur (cocklebur; [5]): 0; Cocklebur plant response rating (cocklebur; [11]): 0; Cocklebur plant response rating (cocklebur; [12]): 0; Cocklebur plant response rating (cocklebur; [13]): 0; Plant response rating (0 to 10; 0 is no effect, 10 is complete control), Cocklebur (cocklebur; Rate 250 g/ha, Postemergence): 0; Cocklebur plant response rating (cocklebur; [14]): 0; Plant response rating, Barley (winter) (winter barley; [10]): 10; Barley (winter) plant response rating (0 to 100 scale) (winter barley; Rate 250 g/ha): 20; Plant response rating, Barley (winter) (winter barley; [15]): 10; I. Ryegrass plant response rating (0 to 100 scale) (Italian ryegrass; Rate 250 g/ha): 0; Plant response rating, I. Ryegrass (Italian ryegrass; [15]): 10; Crabgrass plant response rating (crabgrass; [3]): 0; Crabgrass plant response rating (crabgrass; [4]): 3; Plant response rating, Crabgrass (crabgrass; [5]): 3; Crabgrass plant response rating (crabgrass; [11]): 0; Crabgrass plant response rating (crabgrass; [12]): 0; Crabgrass plant response rating (crabgrass; [13]): 0; Plant response rating (0 to 10; 0 is no effect, 10 is complete control), Crabgrass (crabgrass; Rate 250 g/ha, Postemergence): 1; Crabgrass plant response rating (crabgrass; [14]): 3; Plant response rating, Green foxtail (green foxtail; [10]): 0; Green foxtail plant response rating (0 to 100 scale) (green foxtail; Rate 250 g/ha): 10; Plant response rating, Green foxtail (green foxtail; [15]): 20; Plant response rating, Blackgrass (blackgrass; [10]): 0; Blackgrass plant response rating (0 to 100 scale) (blackgrass; Rate 250 g/ha): 0; Plant response rating, Blackgrass (blackgrass; [15]): 50; B. signalgrass plant response rating (surinam grass; [3]): 0; B. signalgrass plant response rating (surinam grass; Preemergence, Rate 250 g/ha, scale 0 to 10, 0 is no effect, 10 is complete control): 0; Plant response rating, B. signalgrass (surinam grass; [5]): 5; B. signalgrass plant response rating (surinam grass; [11]): 0; B. signalgrass plant response rating (surinam grass; Rate 125 g/ha, Postemergence, scale 0 (no effect) to 10 (complete control)): 0; B. signalgrass plant response rating (surinam grass; [13]): 0; Plant response rating (0 to 10; 0 is no effect, 10 is complete control), B. signalgrass (surinam grass; Rate 250 g/ha, Postemergence): 0; B. signalgrass plant response rating (surinam grass; [9]): 0
